Experimental data reported in ChEMBL document CHEMBL2073965, “Kinetic analysis of the primary active transport of conjugated metabolites across the bile canalicular membrane: comparative study of S-(2,4-dinitrophenyl)-glutathione and 6-hydroxy-5,7-dimethyl-2-methylamino-4-(3-pyridylmethyl)benzothiazole glucuronide” (J Pharmacol Exp Ther, 1997).

Key:
Type in all cases: functional, cell membranes, Sprague-Dawley, Bile canalicular membrane vesicle
[1] = molecular target: T1, ATP-binding cassette sub-family C member 2 (Rattus norvegicus, UniProt Q63120); assay: TP_TRANSPORTER: inhibition of DNP-SG uptake (DNP-SG: 1 uM, 4MUG: 500 uM) in bile canalicular membrane vesicles from SD rat
[2] = molecular target: T1, ATP-binding cassette sub-family C member 2; assay: TP_TRANSPORTER: inhibition of DNP-SG uptake in bile canalicular membrane vesicles from SD rat
[3] = substrate: CNc1nc2c(Cc3cccnc3)c(C)c(O[C@@H]3O[C@H](C(=O)O)[C@@H](O)[C@H](O)[C@H]3O)c(C)c2s1; assay: (§1) TP_TRANSPORTER: uptake in bile canalicular membrane vesicles from SD rat
[4] = substrate: N[C@@H](CCC(=O)N[C@H](CSc1ccc([N+](=O)[O-])cc1[N+](=O)[O-])C(=O)NCC(=O)O)C(=O)O; assay: as §1

For `O=C(O)[C@H]1O[C@@H](OCc2cc(=O)oc3cc(O)ccc23)[C@H](O)[C@@H](O)[C@@H]1O`, the Activity [1] was “inhibitor [+]”.

`CNc1nc2c(Cc3cccnc3)c(C)c(O[C@@H]3O[C@H](C(=O)O)[C@@H](O)[C@H](O)[C@H]3O)c(C)c2s1` [E3040 GLUCURONIDE] gave a Ki [2] of 3.84 µM.

B1: ATP-binding cassette sub-family C member 2 (Rattus norvegicus) (protein)
chain: MDKFCNSTFWDLSLLESPEADLPLCFEQTVLVWIPLGFLWLLAPWQLYSVYRSRTKRSSITKFYLAKQVFVVFLLILAAIDLSLALTEDTGQATVPPVRYTNPILYLCTWLLVLAVQHSRQWCVRKNSWFLSLFWILSVLCGVFQFQTLIRALLKDSKSNMAYSYLFFVSYGFQIVLLILTAFSGPSDSTQTPSVTASFLSSITFSWYDRTVLKGYKHPLTLEDVWDIDEGFKTRSVTSKFEAAMTKDLQKARQAFQRRLQKSQRKPEATLHGLNKKQSQSQDVLVLEEAKKKSEKTTKDYPKSWLIKSLFKTFHVVILKSFILKLIHDLLVFLNPQLLKLLIGFVKSSNSYVWFGYICAILMFAVTLIQSFCLQSYFQHCFVLGMCVRTTVMSSIYKKALTLSNLARKQYTIGETVNLMSVDSQKLMDATNYMQLVWSSVIQITLSIFFLWRELGPSILAGVGVMVLLIPVNGVLATKIRNIQVQNMKNKDKRLKIMNEILSGIKILKYFAWEPSFQEQVQGIRKKELKNLLRFGQLQSLLIFILQITPILVSVVTFSVYVLVDSANVLNAEKAFTSITLFNILRFPLSMLPMVTSSILQASVSVDRLERYLGGDDLDTSAIRRVSNFDKAVKFSEASFTWDPDLEATIQDVNLDIKPGQLVAVVGTVGSGKSSLVSAMLGEMENVHGHITIQGSTAYVPQQSWIQNGTIKDNILFGSEYNEKKYQQVLKACALLPDLEILPGGDMAEIGEKGINLSGGQKQRVSLARAAYQDADIYILDDPLSAVDAHVGKHIFNKVVGPNGLLAGKTRIFVTHGIHFLPQVDEIVVLGKGTILEKGSYRDLLDKKGVFARNWKTFMKHSGPEGEATVNNDSEAEDDDDGLIPTMEEIPEDAASLAMRRENSLRRTLSRSSRSSSRRGKSLKNSLKIKNVNVLKEKEKEVEGQKLIKKEFVETGKVKFSIYLKYLQAVGWWSILFIILFYGLNNVAFIGSNLWLSAWTSDSDNLNGTNNSSSHRDMRIGVFGALGLAQGICLLISTLWSIYACRNASKALHGQLLTNILRAPMRFFDTTPTGRIVNRFSGDISTVDDLLPQTLRSWMMCFFGIAGTLVMICMATPVFAIIIIPLSILYISVQVFYVATSRQLRRLDSVTKSPIYSHFSETVTGLPIIRAFEHQQRFLAWNEKQIDINQKCVFSWITSNRWLAIRLELVGNLVVFCSALLLVIYRKTLTGDVVGFVLSNALNITQTLNWLVRMTSEAETNIVAVERISEYINVENEAPWVTDKRPPADWPRHGEIQFNNYQVRYRPELDLVLKGITCNIKSGEKVGVVGRTGAGKSSLTNCLFRILESAGGQIIIDGIDVASIGLHDLRERLTIIPQDPILFSGSLRMNLDPFNKYSDEEVWRALELAHLRSFVSGLQLGLLSEVTEGGDNLSIGQRQLLCLGRAVLRKSKILVLDEATAAVDLETDSLIQTTIRKEFSQCTVITIAHRLHTIMDSDKIMVLDNGKIVEYGSPEELLSNRGSFYLMAKEAGIENVNHTEL
B1 showed a Km [3] of 5.7 µM and a Km [4] of 17.6 µM.
